According to patent US9388120B2, “Nitrogen and hindered phenol containing dual functional macromolecular antioxidants: synthesis, performances and applications” (Polnox Corporation, priority 2005, dated 2016):

Experiments:
[1] = Oxidative induction time (OIT) by DSC in Group II lubricating base oil; conditions: 200 ppm; for OIT performance (FIG. 2) compared with commercial antioxidants: GII base oil, DSC at 200° C., versus L57 and 6PPD
Procedure: Macromolecule A was mixed with oil at 60° C. for 5-15 minutes at 200 ppm in petroleum based group II base stock oil and polyol based Group V base stock oils. It was tested using differential scanning calorimetry (DSC). Its Oxidative Induction Time (OIT) was also compared with commercially used antioxidants 2,6-di-tert-butyl-phenol, Naugalube APAN (PANA) and Vanlube 81 (DODP).
(§1) Macromolecules V and A were tested for their performance in lubricant oils and polymers. The macromolecules were mixed in oil with stirring at 60° C. for 5-15 mins at 200 ppm in petroleum based Group II base stock and polyol based Group V base stock oils. The performance of these antioxidants were evaluated in lubricant base oil stocks including Group II using the DSC technique for determining their oxidation induction times measured in minutes (OIT) at 200° C. The OITs of the antioxidants having structures V and A were compared with commercial antioxidants [L57: Ciba's Irganox L57, 6PPD: N-hexyl phenyl-1,4-phenylene diamine CAS #793-24-8)].

[2] = Oxidative induction time (OIT) by DSC in polyol ester based base stock oil; conditions: antioxidant at 200 ppm in polyester based base stock; DSC at 200° C., oxygen at 20 ml/min
Procedure: as §1
The summary of performance of antioxidants I, II, V, X, XVIII and A and their comparison with commercial antioxidants L 57 and 6PPD in synthetic polyol ester based oil is shown in Table 1. The macromolecules were mixed in oil with stirring at 60° C. for 5-15 mins at 200 ppm in petroleum based Group II base stock and polyol based Group V base stock oils.

[3] = Solubility in Group II lubricant oil base stock; type: physicochemical; conditions: 10 g in 90 g Group II lubricant oil base stock, stirred 15 mins at 60° C.; industry standard 1-2%
Procedure: [drawing 67] 10 g of the antioxidant V was added to 90 g of Group II lubricant oil base stock in a beaker. […] This solubility is much higher than the typical industry standards of 1-2%.

Compound	OIT performance (FIG. 2) compared with commercial antioxidants [1]	protection of lubricating oils against oxidation (OIT, FIG. 1) compared with commercial antioxidants ([1]; Group II lubricating oil, DSC, versus 2,6-di-tert-butyl-phenol, Naugalube APAN (PANA), Vanlube 81 (DODP))	OIT @ 200 ppm [2] [min]	solubility in Group II base stock [3]
CC(C)(C)c1cc(CNc2ccc(Nc3ccccc3)cc2)c(O)c(C(C)(C)C)c1 [A]	superior performance	superior	37	–
CC(C)CC(C)Nc1ccc(Nc2ccccc2)cc1 (centres unmarked) [Antioxidant 6PPD, N-hexyl phenyl-1,4-phenylene diamine, reference compound]	–	–	22	–
CC(C)CC(C)N(Cc1cc(C(C)(C)C)c(O)c(C(C)(C)C)c1)c1ccc(Nc2ccccc2)cc1 (centres unmarked) [V]	superior performance	–	36	homogenous solution
Cc1cc(CNc2ccc(Nc3ccccc3)cc2)cc(C(C)(C)C)c1O [X]	–	–	28	–
